Test results published in patent publication US9487470B2, “4-((substituted phenyl) difluoromethyl) phenoxy carboxylic acid derivative, and preparation method and uses thereof” (Zhejiang Hisun Pharmaceutical Co., Ltd., priority 2012, dated 2016).

Legend:
[1] = tested on: hyperlipoidemia model of Goldenhamsters (blood plasma TC, TG, HDL-C, LDL-C); test: Pharmacodynamic test group 3: effects on blood lipid levels of Goldenhamsters in a hyperlipoidemia model; type: in vivo; settings: for HDL-C, after administration / LDL-C, after administration / TC, after administration / TG, after administration: 40 mg/kg intragastric, 1 week, high-lipid feed continued, asterisks = P vs before administration; for HDL-C, after administration / LDL-C, after administration / TC, after administration / TG, after administration / HDL-C, before administration / LDL-C, before administration / TC, before administration / TG, before administration: blood plasma, x±s; for therapeutic effect compared with fenofibrate (conclusion from table 4): fenofibrate 40 mg/kg; for HDL-C, before administration / LDL-C, before administration / TC, before administration / TG, before administration: baseline of the group before administration, high-lipid feed 2 weeks, 6 animals
Text: (§1) Animals: 120 male Goldenhamsters, aged 8 weeks, body weight 80-100 g, provided by Vital River Laboratories, Beijing.
Kits: The kits for total cholesterol (TC), triglyceride (TG), and high density lipoprotein cholesterol (HDL-C) were provided by SYSMEX, and the kits for low density lipoprotein cholesterol (LDL-C) were provided by Shanghai Kehua Bio-engineering Co., Ltd.
(§2) Apparatus: SYSMEX Automatic Biochemistry Analyzer, Bechman centrifuge, Setoris balance.
(§3) The animals were acclimatized and fed for 1 week, ad lib, light cycle was 10 h/14 h, and then feeds with high lipid content were fed to the animals (formulation: 0.3% cholesterol, 20% palm oil, and 79.7% basic feeds). The animals were fed for 2 weeks, and were fasted at 4:00 pm of the 14th day (fasted for 16 h). At the 15th day, the animals were anaesthetized with ethyl ether, weighted, and then 0.5 ml blood was collected from vena orbitalis posterior. The blood was anticoagulated with heparin, and was centrifugated at 5000 rpm for 10 min. The blood plasma was taken, and the levels of TC, TG, HDL-C, and LDL-C in blood plasma were determined using automatic biochemistry analyzer.
(§4) During the administration, feeds with high lipid content were continuously fed to the animals. The animals were fed for 1 week, and were fasted at 4:00 pm of the 7th day. At the 8th day, the animals were anaesthetized with ethyl ether, weighted, and then 0.5 ml blood was collected from vena orbitalis posterior. The blood was anticoagulated with heparin, and was centrifugated at 5000 rpm for 10 min. The blood plasma was taken, and the levels of TC, TG, HDL-C, and LDL-C in blood plasma were determined using automatic biochemistry analyzer.
(§5) The results were represented by x±s, and t test was employed for comparing the results obtained before and after administration.

[2] = Solubility in water (remark on the test drugs); type: physicochemical; settings: formulated with 20% solutol
[3] = tested on: hyperlipoidemia model of Goldenhamsters (blood plasma TC, TG, HDL-C, LDL-C); test: Pharmacological test group 1: effects on blood lipid levels of Goldenhamsters in a hyperlipoidemia model; type: in vivo; settings: for HDL-C, after administration / LDL-C, after administration / TC, after administration / TG, after administration: 40 mg/kg intragastric, 1 week, high-lipid feed continued, blood plasma, x±s, asterisks = P vs before administration
Text: Animals: 134 male Goldenhamsters, aged 8 weeks, body weight 80-100 g, provided by Vital River Laboratories, Beijing. […] Kits: The kits for total cholesterol (TC), triglyceride (TG), and high density lipoprotein cholesterol (HDL-C) were provided by SYSMEX, and the kits for low density lipoprotein cholesterol (LDL-C) were provided by Shanghai Kehua Bio-engineering Co., Ltd. Apparatus: SYSMEX Automatic Biochemistry Analyzer, Bechman centrifuge, Setoris balance. The animals were acclimatized and fed for 1 week, ad lib, light cycle was 10 h/14 h, and then feeds with high lipid content were fed to the animals (formulation: 0.3% cholesterol, 20% palm oil, and 79.7% basic feeds). The animals were fed for 10 days, and were fasted at 4:00 pm on the 10th day (fasted for 16 h). On the 11th day, the animals were anaesthetized with ethyl ether, weighted, and then 0.5 ml blood was collected from vena orbitalis posterior. The blood was anticoagulated with heparin, and was centrifugated at 5000 rpm for 10 min. The blood plasma was taken, and the levels of TC, TG, HDL-C, and LDL-C in blood plasma were determined using automatic biochemistry analyzer. The animals were acclimatized and fed for 1 week, ad lib, light cycle was 10 h/14 h, and then feeds with high lipid content were fed to the animals (formulation: 0.3% cholesterol, 20% palm oil, and 79.7% basic feeds). The animals were fed for 2 weeks, and were fasted at 4:00 pm on the […] (fasted for 16 h). On the 22nd day, the animals were anaesthetized with ethyl ether, weighted, and then 0.5 ml blood was collected from vena orbitalis posterior. The blood was anticoagulated with heparin, and was centrifugated at 5000 rpm for 10 min. The blood plasma was taken, and the levels of TC, TG, HDL-C, and LDL-C in blood plasma were determined using automatic biochemistry analyzer. […] During the administration, feeds with high lipid content were continuously fed to the animals. The animals were fed for 1 week, and were fasted at 4:00 pm on the 7th day. On the 8th day, the animals were anaesthetized with ethyl ether, weighted, and then 0.5 ml blood was collected from vena orbitalis posterior. The blood was anticoagulated with heparin, and was centrifugated at 5000 rpm for 10 min. The blood plasma was taken, and the levels of TC, TG, HDL-C, and LDL-C in blood plasma were determined using automatic biochemistry analyzer. The results were represented by x±s, and t test was employed for comparing the results obtained before and after administration.

[4] = tested on: hyperlipoidemia model of Goldenhamsters (blood plasma TC, HDL-C, LDL-C); test: Pharmacological test group 2: effects on blood lipid levels of Goldenhamsters in hyperlipoidemia model; type: in vivo; settings: for blood lipid-regulating effects (conclusion from table 3) / therapeutic effect compared with fenofibrate (conclusion from table 3) / effect on HDL-C, in comparison with the results before administration (in words) / effect on LDL-C, in comparison with the results before administration (in words) / effect on TC, in comparison with the results before administration (in words): 40 mg/kg; for HDL-C, after administration / LDL-C, after administration / TC, after administration: 40 mg/kg intragastric, 1 week, high-lipid feed continued, asterisks = P vs before administration; for HDL-C, after administration / LDL-C, after administration / TC, after administration / HDL-C, before administration / LDL-C, before administration / TC, before administration: blood plasma, x±s; for therapeutic effect compared with fenofibrate (conclusion from table 3): fenofibrate 40 mg/kg; for effect on HDL-C, in comparison with the results before administration (in words) / effect on LDL-C, in comparison with the results before administration (in words) / effect on TC, in comparison with the results before administration (in words): t test after vs before administration; for HDL-C, before administration / LDL-C, before administration / TC, before administration: baseline of the group before administration, high-lipid feed 2 weeks, 6 animals
Text: as §1
Kits: The kits for total cholesterol (TC) and high density lipoprotein cholesterol (HDL-C) were provided by SYSMEX, and the kits for low density lipoprotein cholesterol (LDL-C) were provided by Shanghai Kehua Bio-engineering Co., Ltd.
as §2
as §3, with “pm on” for “pm of”, “h). On” for “h). At”, “TC,” for “TC, TG,”
as §4, with “pm on” for “pm of”, “day. On” for “day. At”, “TC,” for “TC, TG,”
as §5

[5] = 40 mg/kg, t test after vs before administration

| Structure (SMILES) | blood lipid-regulating effects (conclusion from table 4) ([1]; 40 mg/kg) | HDL-C, after administration [1] | LDL-C, after administration [1] | TC, after administration [1] | TG, after administration [1] | therapeutic effect compared with fenofibrate (conclusion from table 4) ([1]; 40 mg/kg) | effect on LDL-C, in comparison with the results before administration (in words) [1, 5] | effect on TC, in comparison with the results before administration (in words) [1, 5] | effect on TG, in comparison with the results before administration (in words) [1, 5] | HDL-C, before administration [1] | LDL-C, before administration [1] | TC, before administration [1] | TG, before administration [1] | solubility in water [2] | regulating effects on the levels of blood lipid (conclusion from table 2) ([3]; 40 mg/kg) | HDL-C, after administration [3] | LDL-C, after administration [3] | TC, after administration [3] | TG, after administration [3] | effect on LDL-C, in comparison with the results before administration (in words) [3, 5] | other results |
| --- | --- | --- | --- | --- | --- | --- | --- | --- | --- | --- | --- | --- | --- | --- | --- | --- | --- | --- | --- | --- | --- |
| COC(=O)C(C)Oc1ccc(C(F)(F)c2ccc(Cl)cc2)cc1 (stereo not drawn) [HS003-024, Methyl 2-(4-((4-chlorophenyl)difluoromethyl)phenoxy) propionate] | excellent blood lipid-regulating effects | 2.94 ± 0.41 | 1.64 ± 0.27 | 7.64 ± 0.46 | 1.92 ± 0.38 | outstanding therapeutic effects, and are superior to fenofibrate | significantly decreases | significantly decreases | significantly decreases | 2.76 ± 0.42 | 2.97 ± 0.98 | 12.47 ± 1.85 | 3.96 ± 1.15 | insoluble |  |  |  |  |  |  |  |
| CC(C)OC(=O)C(C)(C)Oc1ccc(C(F)(F)c2ccc(Cl)cc2)cc1Cl [HS003-020, Isopropyl 2-(4-((4-chlorophenyl)difluoromethyl)-2-chlorophenoxy)-2-methylpropionate] |  |  |  |  |  |  |  |  |  |  |  |  |  | insoluble | tend to the effects of significantly decreasing TG, TC, and LDL-C | 4.18 ± 0.07 | 1.0 ± 0.35 | 8.88 ± 0.44 | 1.19 ± 0.49 | significantly decreases | effect on HDL-C, in comparison with the results before administration (in words) [3, 5]: increase; effect on TG, in comparison with the results before administration (in words) [3, 5]: significantly decreases; blood lipid-regulating effects (conclusion from table 3) [4]: excellent blood lipid-regulating effects; HDL-C, after administration [4]: 1.84 ± 0.14; LDL-C, after administration [4]: 1.42 ± 0.39; TC, after administration [4]: 10.34 ± 1.17; therapeutic effect compared with fenofibrate (conclusion from table 3) [4]: outstanding therapeutic effects, and are superior to fenofibrate; effect on HDL-C, in comparison with the results before administration (in words) [4]: significantly increases; effect on LDL-C, in comparison with the results before administration (in words) [4]: significantly decreases; effect on TC, in comparison with the results before administration (in words) [4]: significantly decreases; HDL-C, before administration [4]: 1.45 ± 0.2; LDL-C, before administration [4]: 3.94 ± 1.41; TC, before administration [4]: 14.06 ± 2.17 |
| COC(=O)C(CCO)Oc1ccc(C(F)(F)c2ccc(Cl)cc2)cc1 (stereo not drawn) [HS003-031, methyl 2-(4-((4-chlorophenyl)difluoromethyl)phenoxy)-4-hydroxy-butyrate] | excellent blood lipid-regulating effects |  | 1.94 ± 0.42 | 11.44 ± 1.05 | 1.89 ± 0.38 |  | significantly decreases |  | significantly decreases | 2.82 ± 0.34 | 3.2 ± 0.83 | 12.61 ± 1.66 | 4.02 ± 1.33 | insoluble |  |  |  |  |  |  | effect on HDL-C, in comparison with the results before administration (in words) [1, 5]: significantly increases |
| CC(C)OC(=O)C(C)(C)Oc1ccc(C(F)(F)c2ccccc2Cl)cc1 [HS003-014, Isopropyl 2-(4-((2-chlorophenyl)difluoromethyl)phenoxy)-2-methylpropionate] |  |  |  |  |  |  |  |  |  |  |  |  |  | insoluble | tend to the effects of significantly decreasing TG, TC, and LDL-C | 3.55 ± 0.4 | 0.75 ± 0.17 | 8.20 ± 0.91 | 0.92 ± 0.25 | significantly decreases | therapeutic effect compared with fenofibrate (conclusion from table 2) ([3]; 40 mg/kg, fenofibrate 40 mg/kg): outstanding therapeutical effects, and is significantly superior to fenofibrate; effect on TC, in comparison with the results before administration (in words) [3, 5]: significantly decreases; effect on TG, in comparison with the results before administration (in words) [3, 5]: significantly decreases; blood lipid-regulating effects (conclusion from table 3) [4]: excellent blood lipid-regulating effects; HDL-C, after administration [4]: 1.82 ± 0.18; LDL-C, after administration [4]: 1.39 ± 0.51; TC, after administration [4]: 9.51 ± 1; therapeutic effect compared with fenofibrate (conclusion from table 3) [4]: outstanding therapeutic effects, and are superior to fenofibrate; effect on HDL-C, in comparison with the results before administration (in words) [4]: increases; effect on LDL-C, in comparison with the results before administration (in words) [4]: significantly decreases; effect on TC, in comparison with the results before administration (in words) [4]: significantly decreases; HDL-C, before administration [4]: 1.57 ± 0.16; LDL-C, before administration [4]: 3.36 ± 1.19; TC, before administration [4]: 13.97 ± 2.27 |
| CCOC(=O)C(CC)Oc1ccc(C(F)(F)c2ccc(Cl)cc2)cc1 (stereo not drawn) [HS003-023, Ethyl 2-(4-((4-chlorophenyl)difluoromethyl)phenoxy)butyrate] | excellent blood lipid-regulating effects | 2.88 ± 0.22 | 2.26 ± 0.38 | 8.49 ± 1.08 | 2.40 ± 0.35 | outstanding therapeutic effects, and are superior to fenofibrate | significantly decreases | significantly decreases | significantly decreases | 2.76 ± 0.28 | 2.86 ± 0.63 | 12.39 ± 2.38 | 3.91 ± 1.07 | insoluble |  |  |  |  |  |  |  |
